The nature of series [1]: Pharmacokinetic study of YCHD components and phase II metabolites in ANIT-induced cholestatic rats (UHPLC-MS/MS, sulfatase enzymolysis). The format is in vivo, rat. The following applies: for AUC(0-∞) / Ka: Model group (ANIT 50 mg/kg cholestatic rats); for AUC(0-∞) / Ka / AUC(0-∞) reduced by, cholestatic model rats compared with normal rats / Cmax reduced by, cholestatic model rats compared with normal rats / AUC(0-∞) increased by, cholestatic model rats compared with normal rats / Cmax increased by, cholestatic model rats compared with normal rats: single oral YCHD 12 g/kg; for Cmax / Tmax / CL/F / MRT inf / Vd/F / half-life: rat, po, 12 g/kg; for CL/F: read-out: CLz/F; for MRT inf: read-out: MRT (0-∞) (converted); for Vd/F: read-out: Vz/F; for half-life: read-out: t1/2z; for in vivo absorption and excretion processes in cholestatic rats (comparison of Ka and Ke): versus normal rats, oral YCHD 12 g/kg. As to the method:
To explore the pharmacokinetic properties of YCHD following intragastric administration in rats, a rapid and sensitive method involving the use of UHPLC-MS/MS (Agilent 6460 series, Agilent Technologies, Santa Clara, CA, United States) was developed and validated for the simultaneous quantification of 10 active components of rat plasma. The quantification was conducted in ESI negative ionization mode, and the mass spectrometry conditions were as follows: capillary voltage, 3500 V; gas flow, 12 L/min; nebulizer, 40 psi; gas temperature, 350°C; and delta EMV (-), 400.
To each 50 μL plasma sample, 10 μL of internal standard solution (paeoniflorin, 1000 ng/mL) and 300 μL of a mixed solution of methanol and acetonitrile (v/v, 1:1; containing 1% formic acid) were added. Subsequently, the solution was vortex mixed for 5 min. After centrifugation at 15,000 rpm for 5 min, the supernatant was transferred completely into a tube, before being evaporated under N2 at 40°C. The residue was then dissolved in 50 μL of 50% methanol–water (v/v, 1:1) through vortexing for 5 min, after centrifugation at 15,000 rpm for 10 min. Finally, 5 μL of the supernatant sample was injected into the UHPLC-MS/MS system for analysis.
The rats were randomly divided into two groups (n = 5 for each group). […] The blood samples were centrifuged at 4000 rpm for 10 min, and the supernatant plasma was harvested. Plasma samples (50 μL) were immediately processed as outlined in Section “Chromatographic and Mass Spectrometry Conditions.”
Additional plasma samples (50 μL) were enzymatically hydrolyzed with 50 μL of enzyme solution (65.86 mg of sulfatase, dissolved in 2 mL of sodium acetate buffer, pH 5.0) for phase II metabolite quantification, in accordance with our previous study ([Ding et al., 2012]). After being vortex mixed for 5 min, the mixture was incubated at 37°C for 30 min and then returned to room temperature. Subsequently, the samples were processed as outlined in Section “Chromatographic and Mass Spectrometry Conditions” for UHPLC-MS/MS analysis. During routine analysis, each analytical run included six blank plasma samples, a set of calibration samples, a set of QC samples, and unknowns.
All data are presented as mean ± SD. A one-way analysis of variance was used to compare data between two groups using SPSS (Version 21.0). The differences were considered to be statistically significant when p < 0.05 and highly significant when p < 0.01 or p < 0.001. Pharmacokinetic data analysis was performed using DAS 2.1.1 software (Mathematical Pharmacology Professional Committee of China, Shanghai, China).
The specific contents of the phase II metabolites of these components were detected indirectly by evaluating the content difference of their prototypes in samples after enzymolysis and before enzymolysis
CG = Ca −[MG × (CGG/MGG + CGe/MGe)]
Ca, CGG, and CGe represent the concentration of genipin, genipin-1-β-D-gentiobioside, and geniposide after enzymolysis of sulfatase, respectively. MG, MGG-, and MGe represent the mass of genipin, genipin-1-β-D-gentiobioside, and geniposide, respectively.

Series [2] deals with ANIT-induced intrahepatic cholestasis. Nature of the series: Bile flow rate in ANIT-induced cholestatic rats. The format is in vivo, rat. The conditions noted are these: UDCA 100 mg/kg i.g. + ANIT 50 mg/kg; over 360 min at 48 h after ANIT; not significant vs model. The protocol:
Ltd. (Shanghai, China) and fed in the Laboratory Animal Center of Shanghai University of Traditional Chinese Medicine. […] The rats were randomly divided into six groups (n = 5 for each group). […] [Cao et al., 2017]). […] Before and 24 h after modeling, retro-orbital blood samples were collected in a coagulation tube, and they were then centrifuged at 4°C for 10 min (4000 rpm) to obtain the serum for the assay of ALT, AST, TBIL, DBIL, and TBA. At the end of the experiment, all rats were euthanized by CO2 inhalation. The serum samples were stored at -70°C until analysis, and liver samples were isolated and stored at -70°C for further analysis, whereas the central part of the right large lobe of the liver was used for histological examination.  FIGURE 2 The scheme of the animal experimental design. […] UDCA, positive control group treated with ursodeoxycholic acid (UDCA) (100 mg/kg, […].); […] A closed IV catheter system (Becton Dickinson, United States) was applied to cannulate the bile duct, and the bile specimens were collected into tubes at 2 h intervals for 6 h. The collected serum samples were maintained at room temperature to dissolve. The serum levels of ALT, AST, TBIL, DBIL, and TBA were then determined using a chemistry analyzer system (HITACHI 7080, Japan).

In another series the test system is MRP2. Nature of the series: Expression level of MRP2 in rat liver by UHPLC-MS/MS. The format is in vivo.

Experimental findings from PMC5962729 (Frontiers in Pharmacology, 2018) are described below.

Where two headings read alike, the source gives them in different places.

Description for MRP2: Male Sprague Dawley rats (230 ± 20 g, 6–8 weeks of age) were purchased from B&K Laboratory Animal, Corp. Ltd. (Shanghai, China) and fed in the Laboratory Animal Center of Shanghai University of Traditional Chinese Medicine. All rats were allowed to acclimatize for 3 days before experimentation. The rats were randomly divided into six groups (n = 5 for each group). […] The rats in groups 4, 5, and 6 were intragastrically administered YCHD every 24 h for 10 consecutive days. The rats in group 3 were orally administered UDCA at a dose of 100 mg/kg every 24 h for 10 consecutive days, which is well-documented to treat induced liver injury and cholestasis ([Chen et al., 2016]; [Cao et al., 2017]). Moreover, groups 1 and 2 were intragastrically treated with physiological saline (0.9%) at a dose of 1 mL/100 g. […] At the end of the experiment, all rats were euthanized by CO2 inhalation. The serum samples were stored at -70°C until analysis, and liver samples were isolated and stored at -70°C for further analysis, whereas the central part of the right large lobe of the liver was used for histological examination. […]
Total membrane protein was isolated (in triplicate) from liver tissue according to the Native Membrane Protein Extraction Kit protocol. Subsequently, protein concentrations were determined by applying the BCA Protein Assay Kit. […]

The Cmax is the maximum level reached in the sampled fluid or tissue. What is called Tmax is the time from dosing to the highest level. Turning to `CC(=O)c1ccc(O)cc1` [4-hydroxyacetophenone, 4-Hydroxyacetophenone], in series [1] (plasma), the “AUC(0-∞)” value was 113028.5 ± 56412.0 µg·min/L, the Ka worked out at 202.7 ± 235.9 min⁻¹, the Cmax was 676 ± 85 ng/mL and the Tmax is 0.25 h. Besides, in series [1] (plasma), the CL/F was 215 ± 37 mL/min/kg, the MRT inf was 18.6 h, the Vd/F stood at 429 ± 287 L/kg and the half-life came to 25.9 ± 21 h. Besides, in series [1], the “AUC(0-∞) reduced by, cholestatic model rats compared with normal rats” value turned out to be 41.2%; the “Cmax reduced by, cholestatic model rats compared with normal rats” value (“Cmax reduced by, cholestatic model rats” below) is 57.2%; the “in vivo absorption and excretion processes in cholestatic rats (comparison of Ka and Ke)” value is listed as “inhibited”.
For `COC(=O)C1=CO[C@@H](O[C@@H]2O[C@H](CO)[C@@H](O)[C@H](O)[C@H]2O)[C@@H]2C(CO)=CC[C@H]12` [Geniposide], in series [1] (plasma), the “AUC(0-∞)” value was 956445.5 ± 420665.9 µg·min/L and the Ka was 1543.0 ± 592.8 min⁻¹. In addition, in series [1] (in vivo), the Cmax came out at 578 ± 59.6 ng/mL, the time to peak (Tmax) was 0.45 h, the CL/F was determined as 45 ± 12 mL/min/kg and the MRT inf was 7.5 h. Also, in series [1] (in vivo), the Vd/F came to 22.4 ± 7.5 L/kg and the half-life is 5.64 ± 0.467 h. In series [1], the “AUC(0-∞) increased by, cholestatic model rats compared with normal rats” value was determined as 148.9%; the “Cmax increased by, cholestatic model rats compared with normal rats” value is recorded as 10.2%; the “in vivo absorption and excretion processes in cholestatic rats (comparison of Ka and Ke)” value is reported as “significantly enhanced”.
Regarding `O=C(O)C1=CO[C@@H](O[C@@H]2O[C@H](CO)[C@@H](O)[C@H](O)[C@H]2O)[C@@H]2C(CO)=CC[C@H]12` [Geniposidic acid], in series [1] (plasma), the “AUC(0-∞)” value came out at 3007701.6 ± 1408367.9 µg·min/L, the Ka was determined as 41280.6 ± 37036.2 min⁻¹, the Cmax worked out at 1690 ± 251 ng/mL and the Tmax was 4 h. In addition, the MRT inf in series [1] (plasma) was 9.5 h. In addition, in series [1] (Sprague Dawley, plasma), the Vd/F is 4990 ± 1180 L/kg and the half-life is 5.23 ± 1.44 h. Also, in series [1], the “AUC(0-∞) increased by, cholestatic model rats compared with normal rats” value amounted to 85.5%; the “Cmax increased by, cholestatic model rats compared with normal rats” value is listed as 153.7%; the “in vivo absorption and excretion processes in cholestatic rats (comparison of Ka and Ke)” value is on record as “significantly enhanced”.
`O=C(O)c1cc(O)c2c(c1)C(=O)c1cccc(O)c1C2=O` [Rhein]: in series [1] (plasma), the “AUC(0-∞)” value is 172453.1 ± 108249.8 µg·min/L, the Ka was found to be 478.1 ± 200.1 min⁻¹, the Cmax stood at 422 ± 87.5 ng/mL and the Tmax is 0.25 h. In addition, in series [1] (plasma), the CL/F turned out to be 221 ± 84 mL/min/kg, the MRT inf is 2.83 h, the Vd/F came to 41.4 ± 20.8 L/kg and the half-life turned out to be 2.19 ± 0.812 h. Further, in series [1], the “AUC(0-∞) reduced by, cholestatic model rats compared with normal rats” value is recorded as 80.9%; the “Cmax reduced by, cholestatic model rats” value worked out at 86.1%; the “in vivo absorption and excretion processes in cholestatic rats (comparison of Ka and Ke)” value is recorded as “inhibited”.
Consider `COC(=O)C1=COC(OC2OC(CO)C(O)C(O)C2O)C2C(CO)=CC(O)C12` (stereo not drawn) [Scandoside methyl ester], for which, in series [1] (plasma), the “AUC(0-∞)” value is 300942.4 ± 177466.0 µg·min/L and the Ka was 22.6 ± 38.8 min⁻¹. In addition, in series [1] (Sprague Dawley, in vivo), the Cmax worked out at 93.8 ± 13.7 ng/mL, the Tmax was 4.4 h, the CL/F turned out to be 98 ± 16 mL/min/kg and the MRT inf is 16.7 h. Moreover, in series [1] (in vivo), the Vd/F turned out to be 95.6 ± 26.6 L/kg and the half-life came out at 11.5 ± 3.28 h. Besides, in series [1], the “Cmax reduced by, cholestatic model rats” value is 26.3%; the “in vivo absorption and excretion processes in cholestatic rats (comparison of Ka and Ke)” value is “inhibited”.
Consider `C[C@H](CCC(=O)O)[C@H]1CC[C@H]2[C@@H]3[C@@H](O)C[C@@H]4C[C@H](O)CC[C@]4(C)[C@H]3CC[C@]12C` [UDCA, Ursodeoxycholic acid], for which the bile flow rate in series [2] turned out to be 0.29 ± 0.12 μL/min⋅100 g B.W. Moreover, the “Mrp2 expression level in rat liver” value with MRP2 (UDCA group, ANIT-treated rats, mean ± S.D.) was 2.21±0.87 fmol/μg protein. Moreover, the “MRP2 expression upregulated, fold” value in the series on MRP2 (UDCA-treated cholestatic rats, liver, not statistically significant) stood at 1.5 fold.
Take `COC(=O)C1=CO[C@@H](O[C@@H]2O[C@H](CO[C@@H]3O[C@H](CO)[C@@H](O)[C@H](O)[C@H]3O)[C@@H](O)[C@H](O)[C@H]2O)[C@@H]2C(CO)=CC[C@H]12` [genipin-1-β-D-gentiobiodide, Genipin-1-β-D-gentiobiodide]: in series [1] (plasma), the “AUC(0-∞)” value was 31749.4 ± 15408.0 µg·min/L, the Ka came out at 106.8 ± 25.5 min⁻¹, the peak concentration (Cmax) is 63.9 ± 10.1 ng/mL and the Tmax is 0.25 h. In addition, in series [1] (plasma), the CL/F stood at 1260 ± 165 mL/min/kg and the MRT inf is 3.14 h. In series [1] (Sprague Dawley, plasma), the Vd/F stood at 280 ± 254 L/kg and the half-life amounted to 2.81 ± 3.01 h. In series [1], the “AUC(0-∞) reduced by, cholestatic model rats compared with normal rats” value is 17.7% and the “Cmax reduced by, cholestatic model rats” value was determined as 39.5%.
